Experimental data published in article PMC4522657, “Identification of a DYRK1A Inhibitor that Induces Degradation of the Target Kinase using Co-chaperone CDC37 fused with Luciferase nanoKAZ” (Scientific Reports, 2015).

Key:
Test in all cases: Kinase panel, CaNDY 1 µM
Type in all cases: biochemical
Details in all cases: CaNDY 1 µM relative to DMSO
[1] = biological target: T1, p38γ (Homo sapiens, UniProt P53778)
T1 construct: purchased Carna Biosciences

[2] = biological target: T2, EPHA5 (Homo sapiens, UniProt P54756)
T2 construct: purchased Carna Biosciences
Outline: (§1)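 Inhibition values reflect the P/(P + substrate) ratio in treated versus compound-free wells, measured after electrophoretic separation. Assays ran for an hour at room temperature with DMSO held at 1%, using baculovirus-expressed, GST-tagged full-length human kinases.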

[3] = biological target: T3, CDC7/ASK (Homo sapiens, UniProt O00311)
T3 construct: purchased Carna Biosciences
Outline: as §1

[4] = biological target: T4, EPHB3 (Homo sapiens, UniProt P54753)
T4 construct: purchased Carna Biosciences
Outline: as §1

[5] = biological target: T5, CDK6/CycD3 (Homo sapiens, UniProt Q00534)
T5 construct: purchased Carna Biosciences
Outline: as §1

[6] = biological target: T6, BRAF(V600E)_Cascade (Homo sapiens, UniProt P15056, V600E)
T6 construct: purchased Carna Biosciences
Outline: as §1

[7] = biological target: T7, DLK_Cascade (Homo sapiens, UniProt Q12852)
T7 construct: purchased Carna Biosciences
Outline: as §1

[8] = biological target: T8, MARK2 (Homo sapiens, UniProt Q7KZI7)
T8 construct: purchased Carna Biosciences
Outline: as §1

[9] = biological target: T9, FGFR2 (Homo sapiens, UniProt P21802)
T9 construct: purchased Carna Biosciences
Outline: as §1

[10] = biological target: T10, LOK (Homo sapiens, UniProt O94804)
T10 construct: purchased Carna Biosciences
Outline: as §1

[11] = biological target: T11, MST3 (Homo sapiens, UniProt Q9Y6E0)
T11 construct: purchased Carna Biosciences
Outline: as §1

[12] = biological target: T12, LATS2 (Homo sapiens, UniProt Q9NRM7)
T12 construct: purchased Carna Biosciences
Outline: as §1

[13] = biological target: T13, EGFR (Homo sapiens, UniProt P00533)
T13 construct: purchased Carna Biosciences
Outline: as §1

[14] = biological target: T14, ZAP70 (Homo sapiens, UniProt P43403)
T14 construct: purchased Carna Biosciences
Outline: as §1

[15] = biological target: T15, IKKε (Homo sapiens, UniProt Q14164)
T15 construct: purchased Carna Biosciences
Outline: as §1

[16] = biological target: T16, JNK3 (Homo sapiens, UniProt P53779)
T16 construct: purchased Carna Biosciences
Outline: as §1

[17] = biological target: T17, PGK (Homo sapiens, UniProt Q13976)
T17 construct: purchased Carna Biosciences
Outline: as §1

[18] = biological target: T18, DYRK2 (Homo sapiens, UniProt Q92630)
T18 construct: purchased Carna Biosciences
Outline: as §1

[19] = biological target: T19, HER4 (Homo sapiens, UniProt Q15303)
T19 construct: purchased Carna Biosciences
Outline: as §1

[20] = biological target: T20, TAK1-TAB1_Cascade (Homo sapiens, UniProt O43318)
T20 construct: purchased Carna Biosciences
Outline: as §1

[21] = biological target: T21, EPHA6 (Homo sapiens, UniProt Q9UF33)
T21 construct: purchased Carna Biosciences
Outline: as §1

[22] = biological target: T22, CDK3/CycE1 (Homo sapiens, UniProt Q00526)
T22 construct: purchased Carna Biosciences
Outline: as §1

[23] = biological target: T23, ABL(T315I) (Homo sapiens, UniProt P00519, T315I)
T23 construct: purchased Carna Biosciences
Outline: as §1

[24] = biological target: T24, TBK1 (Homo sapiens, UniProt Q9UHD2)
T24 construct: purchased Carna Biosciences
Outline: as §1

[25] = biological target: T25, PKACβ (Homo sapiens, UniProt P22694)
T25 construct: purchased Carna Biosciences
Outline: as §1

[26] = biological target: T26, CDK2/CycE1 (Homo sapiens, UniProt P24941)
T26 construct: purchased Carna Biosciences
Outline: as §1

[27] = biological target: T27, p38β (Homo sapiens, UniProt Q15759)
T27 construct: purchased Carna Biosciences
Outline: as §1

[28] = biological target: T28, YES (Homo sapiens, UniProt P07947)
T28 construct: purchased Carna Biosciences
Outline: as §1

[29] = biological target: T29, SRPK1 (Homo sapiens, UniProt Q96SB4)
T29 construct: purchased Carna Biosciences
Outline: as §1

[30] = biological target: T30, MET(Y1235D) (Homo sapiens, UniProt P08581, Y1235D)
T30 construct: purchased Carna Biosciences
Outline: as §1

[31] = biological target: T31, CHK2 (Homo sapiens, UniProt O96017)
T31 construct: purchased Carna Biosciences
Outline: as §1

[32] = biological target: T32, NEK2 (Homo sapiens, UniProt P51955)
T32 construct: purchased Carna Biosciences
Outline: as §1

[33] = biological target: T33, AKT3 (Homo sapiens, UniProt Q9Y243)
T33 construct: purchased Carna Biosciences
Outline: as §1

[34] = biological target: T34, KIT (Homo sapiens, UniProt P10721)
T34 construct: purchased Carna Biosciences
Outline: as §1

[35] = biological target: T35, CSK (Homo sapiens, UniProt P41240)
T35 construct: purchased Carna Biosciences
Outline: as §1

[36] = biological target: T36, PKACα (Homo sapiens, UniProt P17612)
T36 construct: purchased Carna Biosciences

T7 sequence (Q12852 whole entry): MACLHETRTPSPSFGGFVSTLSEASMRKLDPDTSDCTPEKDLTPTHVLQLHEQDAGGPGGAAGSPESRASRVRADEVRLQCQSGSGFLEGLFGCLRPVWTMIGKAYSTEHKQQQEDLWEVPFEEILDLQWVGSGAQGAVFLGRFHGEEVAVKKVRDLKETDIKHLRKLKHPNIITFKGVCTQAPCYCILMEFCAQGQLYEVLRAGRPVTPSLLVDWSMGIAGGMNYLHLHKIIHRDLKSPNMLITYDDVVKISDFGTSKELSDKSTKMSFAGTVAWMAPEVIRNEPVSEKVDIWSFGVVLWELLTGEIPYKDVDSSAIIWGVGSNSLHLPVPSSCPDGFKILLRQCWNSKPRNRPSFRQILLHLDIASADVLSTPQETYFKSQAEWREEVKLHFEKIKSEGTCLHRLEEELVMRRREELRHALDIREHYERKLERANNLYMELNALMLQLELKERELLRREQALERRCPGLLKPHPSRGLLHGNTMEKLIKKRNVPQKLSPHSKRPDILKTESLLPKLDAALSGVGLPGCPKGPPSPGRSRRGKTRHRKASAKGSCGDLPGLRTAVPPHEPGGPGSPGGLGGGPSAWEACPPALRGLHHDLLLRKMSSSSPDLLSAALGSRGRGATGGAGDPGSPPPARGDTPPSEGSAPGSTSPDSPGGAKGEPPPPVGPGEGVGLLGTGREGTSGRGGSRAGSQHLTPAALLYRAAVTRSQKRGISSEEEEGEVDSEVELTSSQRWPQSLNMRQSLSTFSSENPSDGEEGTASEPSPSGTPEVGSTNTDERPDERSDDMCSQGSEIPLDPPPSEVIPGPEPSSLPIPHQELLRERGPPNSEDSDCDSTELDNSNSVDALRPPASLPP
T20 sequence (O43318 with tags, fused parts or gaps limits assumed): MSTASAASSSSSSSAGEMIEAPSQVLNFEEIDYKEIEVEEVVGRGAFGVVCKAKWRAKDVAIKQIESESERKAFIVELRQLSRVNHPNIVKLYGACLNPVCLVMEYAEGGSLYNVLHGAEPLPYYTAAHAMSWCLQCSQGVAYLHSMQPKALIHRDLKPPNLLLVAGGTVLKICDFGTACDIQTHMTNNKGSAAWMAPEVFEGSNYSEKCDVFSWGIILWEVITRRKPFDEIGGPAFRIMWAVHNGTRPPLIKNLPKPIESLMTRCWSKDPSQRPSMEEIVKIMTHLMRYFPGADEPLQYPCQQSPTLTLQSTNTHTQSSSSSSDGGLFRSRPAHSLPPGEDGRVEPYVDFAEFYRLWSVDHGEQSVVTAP
T14 sequence (P43403 whole entry): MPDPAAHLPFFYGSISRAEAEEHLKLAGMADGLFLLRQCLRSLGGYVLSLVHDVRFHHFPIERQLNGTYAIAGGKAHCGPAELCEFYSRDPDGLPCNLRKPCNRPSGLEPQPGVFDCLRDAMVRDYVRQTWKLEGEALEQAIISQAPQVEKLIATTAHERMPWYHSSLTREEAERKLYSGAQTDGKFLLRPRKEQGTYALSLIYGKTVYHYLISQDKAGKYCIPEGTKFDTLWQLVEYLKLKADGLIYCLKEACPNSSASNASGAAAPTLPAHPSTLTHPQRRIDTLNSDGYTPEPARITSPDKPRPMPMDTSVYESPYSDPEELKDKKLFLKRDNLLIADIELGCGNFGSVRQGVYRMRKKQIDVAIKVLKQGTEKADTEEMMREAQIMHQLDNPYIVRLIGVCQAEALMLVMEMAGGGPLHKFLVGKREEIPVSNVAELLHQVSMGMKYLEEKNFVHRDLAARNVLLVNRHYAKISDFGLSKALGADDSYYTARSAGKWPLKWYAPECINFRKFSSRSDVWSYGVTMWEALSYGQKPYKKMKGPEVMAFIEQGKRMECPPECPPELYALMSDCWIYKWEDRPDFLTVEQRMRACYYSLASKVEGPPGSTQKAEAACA
T11 sequence (Q9Y6E0 whole entry): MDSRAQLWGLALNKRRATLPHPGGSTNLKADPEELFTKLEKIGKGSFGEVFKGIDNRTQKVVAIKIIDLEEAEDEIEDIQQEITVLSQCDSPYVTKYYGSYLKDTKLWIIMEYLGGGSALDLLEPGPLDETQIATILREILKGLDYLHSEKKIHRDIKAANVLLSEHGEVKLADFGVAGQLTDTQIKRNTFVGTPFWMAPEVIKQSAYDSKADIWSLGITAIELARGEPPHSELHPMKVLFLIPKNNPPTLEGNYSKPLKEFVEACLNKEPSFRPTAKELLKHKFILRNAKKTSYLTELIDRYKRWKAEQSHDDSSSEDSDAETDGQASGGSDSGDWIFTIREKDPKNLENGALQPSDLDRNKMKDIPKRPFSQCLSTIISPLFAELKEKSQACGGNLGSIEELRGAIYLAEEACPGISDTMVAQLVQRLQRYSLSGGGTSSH
T29 sequence (Q96SB4 whole entry): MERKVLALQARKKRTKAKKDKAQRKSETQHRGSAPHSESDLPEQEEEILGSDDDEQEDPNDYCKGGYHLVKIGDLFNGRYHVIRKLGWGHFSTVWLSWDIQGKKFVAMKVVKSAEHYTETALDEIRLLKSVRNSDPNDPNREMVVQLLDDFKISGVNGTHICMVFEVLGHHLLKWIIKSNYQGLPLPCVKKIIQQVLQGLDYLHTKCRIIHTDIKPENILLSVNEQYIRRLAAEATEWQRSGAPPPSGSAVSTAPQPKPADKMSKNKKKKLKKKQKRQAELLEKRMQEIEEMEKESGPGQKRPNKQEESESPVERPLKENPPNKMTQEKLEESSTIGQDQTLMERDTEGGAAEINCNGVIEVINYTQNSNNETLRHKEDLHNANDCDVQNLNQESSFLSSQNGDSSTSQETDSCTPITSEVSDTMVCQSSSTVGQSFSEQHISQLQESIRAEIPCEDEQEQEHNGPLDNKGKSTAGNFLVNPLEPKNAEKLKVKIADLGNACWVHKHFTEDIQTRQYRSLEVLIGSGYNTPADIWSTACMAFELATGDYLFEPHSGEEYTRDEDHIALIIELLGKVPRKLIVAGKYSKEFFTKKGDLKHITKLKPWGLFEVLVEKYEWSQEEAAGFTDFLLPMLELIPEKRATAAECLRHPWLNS
T5 sequence (Q00534 whole entry): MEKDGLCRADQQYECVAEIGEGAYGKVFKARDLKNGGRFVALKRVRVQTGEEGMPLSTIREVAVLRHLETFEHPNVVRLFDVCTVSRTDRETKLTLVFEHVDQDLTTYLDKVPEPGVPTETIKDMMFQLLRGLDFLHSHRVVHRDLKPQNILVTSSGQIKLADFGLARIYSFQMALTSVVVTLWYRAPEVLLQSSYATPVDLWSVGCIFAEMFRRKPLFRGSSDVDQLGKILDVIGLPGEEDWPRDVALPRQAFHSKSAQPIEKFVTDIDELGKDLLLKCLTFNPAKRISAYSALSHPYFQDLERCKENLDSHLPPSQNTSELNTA
T5 sequence (P30281 whole entry partner): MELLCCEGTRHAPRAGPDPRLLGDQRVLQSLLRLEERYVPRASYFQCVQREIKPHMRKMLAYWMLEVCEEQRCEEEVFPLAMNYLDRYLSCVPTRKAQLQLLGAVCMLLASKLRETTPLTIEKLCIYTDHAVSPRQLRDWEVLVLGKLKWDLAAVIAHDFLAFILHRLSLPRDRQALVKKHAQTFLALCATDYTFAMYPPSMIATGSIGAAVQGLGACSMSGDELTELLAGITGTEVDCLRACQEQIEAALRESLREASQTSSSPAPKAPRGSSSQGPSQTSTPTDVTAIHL
T21 sequence (Q9UF33 23-1036): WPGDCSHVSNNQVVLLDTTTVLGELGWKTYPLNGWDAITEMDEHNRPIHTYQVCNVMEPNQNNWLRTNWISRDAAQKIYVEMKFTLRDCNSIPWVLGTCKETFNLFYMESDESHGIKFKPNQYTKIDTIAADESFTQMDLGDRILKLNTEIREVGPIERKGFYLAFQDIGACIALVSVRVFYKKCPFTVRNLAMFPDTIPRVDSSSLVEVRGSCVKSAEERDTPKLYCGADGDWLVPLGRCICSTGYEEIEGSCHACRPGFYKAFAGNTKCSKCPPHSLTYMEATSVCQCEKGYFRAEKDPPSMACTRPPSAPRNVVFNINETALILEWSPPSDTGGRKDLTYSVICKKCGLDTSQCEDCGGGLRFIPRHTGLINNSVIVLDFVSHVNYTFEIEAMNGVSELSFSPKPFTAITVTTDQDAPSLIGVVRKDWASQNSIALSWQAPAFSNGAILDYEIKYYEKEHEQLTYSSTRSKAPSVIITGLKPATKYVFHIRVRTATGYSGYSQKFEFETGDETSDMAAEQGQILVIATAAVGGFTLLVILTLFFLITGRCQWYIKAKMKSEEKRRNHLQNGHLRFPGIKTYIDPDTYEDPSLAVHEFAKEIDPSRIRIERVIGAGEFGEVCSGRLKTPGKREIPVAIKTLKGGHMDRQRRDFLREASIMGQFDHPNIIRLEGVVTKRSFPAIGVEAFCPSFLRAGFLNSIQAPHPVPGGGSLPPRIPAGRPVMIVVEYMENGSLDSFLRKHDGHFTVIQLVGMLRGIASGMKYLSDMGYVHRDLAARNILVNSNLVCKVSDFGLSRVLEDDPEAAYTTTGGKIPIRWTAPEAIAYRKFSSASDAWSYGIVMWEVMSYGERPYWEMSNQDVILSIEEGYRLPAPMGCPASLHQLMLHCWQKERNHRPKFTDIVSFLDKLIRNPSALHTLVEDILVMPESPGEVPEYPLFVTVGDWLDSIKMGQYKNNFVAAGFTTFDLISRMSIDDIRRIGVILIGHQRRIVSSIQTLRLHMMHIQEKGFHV
T1 sequence (P53778 whole entry): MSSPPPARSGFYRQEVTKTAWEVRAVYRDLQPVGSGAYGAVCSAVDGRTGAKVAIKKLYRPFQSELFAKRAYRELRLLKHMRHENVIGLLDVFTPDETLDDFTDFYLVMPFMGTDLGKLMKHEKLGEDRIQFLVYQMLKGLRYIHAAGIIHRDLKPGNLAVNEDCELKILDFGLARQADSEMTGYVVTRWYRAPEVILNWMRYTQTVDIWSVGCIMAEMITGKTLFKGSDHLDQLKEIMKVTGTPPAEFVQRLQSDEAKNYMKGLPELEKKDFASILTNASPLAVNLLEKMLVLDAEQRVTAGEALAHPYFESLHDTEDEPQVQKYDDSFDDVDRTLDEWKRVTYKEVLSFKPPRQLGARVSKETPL

## [H]/N=C1/NC(=O)C(=Cc2ccc3c(c2)CCO3)S1 [CaNDY, (Z)-5-[(2,3-dihydrobenzofuran-5-yl)methylene]-2-iminothiazolidin-4-one]
[1]
  remaining activity at 1 µM: 91.4%
[2]
  %Activity: 100.1%
[3]
  remaining activity at 1 µM: 68%
[4]
  remaining activity at 1 µM: 98.6%
[5]
  remaining activity at 1 µM: 97.1%
[6]
  remaining activity at 1 µM: 105%
[7]
  %Activity: 102.6%
[8]
  remaining activity at 1 µM: 97.5%
[9]
  remaining activity at 1 µM: 104%
[10]
  %Activity: 106.3%
[11]
  %Activity: 100.2%
[12]
  %Activity: 98.1%
[13]
  %Activity: 99.9%
[14]
  remaining activity at 1 µM: 95.7%
[15]
  remaining activity at 1 µM: 97.6%
[16]
  %Activity: 100.8%
[17]
  remaining activity at 1 µM: 92.8%
[18]
  remaining activity at 1 µM: 20.3%
[19]
  remaining activity at 1 µM: 111%
[20]
  remaining activity at 1 µM: 104%
[21]
  remaining activity at 1 µM: 96.8%
[22]
  %Activity: 94.7%
[23]
  remaining activity at 1 µM: 97%
[24]
  remaining activity at 1 µM: 100%
[25]
  remaining activity at 1 µM: 92.5%
[26]
  %Activity: 87.5%
[27]
  remaining activity at 1 µM: 99.7%
[28]
  remaining activity at 1 µM: 101%
[29]
  remaining activity at 1 µM: 101%
[30]
  %Activity: 99.0%
[31]
  remaining activity at 1 µM: 97.2%
[32]
  remaining activity at 1 µM: 95.3%
[33]
  remaining activity at 1 µM: 104%
[34]
  remaining activity at 1 µM: 99.3%
[35]
  %Activity: 99.7%
[36]
  remaining activity at 1 µM: 88.9%
